The values that follow are results of earlier work, collected in patent US5093322A, “Tick-derived amblyommin and method of antithrombin therapy” (Hoechst Aktiengesellschaft, priority 1988, dated 1992).

Data set [1] concerns thrombin.
For data set [2] the following is noted: in vivo.

On to hirudin, for which the “thrombin inhibition, specificity” value in data set [1] is “highly specific thrombin inhibitor”. In addition, the half-life entry in data set [2] is “relatively short half-life”.
